Test system: H1N1 flu
Assay: Clinical Trial 6, influenza patient (H1N1 flu)
Type: in vivo
Conditions: person; Tamiflu taken for a week
Source text: They were a patient taking Tamiflu against symptoms of H1N1 flu and taking it for a week.

CCOC(=O)C1=C[C@@H](OC(CC)CC)[C@H](NC(C)=O)[C@@H](N)C1 [Tamiflu]
improvement of symptoms of H1N1 flu: minimal
